This is an account of results in US7910746B2, “Haloalkyl carboxamides” (Bayer CropScience AG, priority 2004, dated 2011).

Each structure is given as a SMILES string.

Tested on in the first data set: not listed separately
As to the kind of experiment: log P by HPLC on reverse phase column (C18), acid range. Format: physicochemical. The following applies: pH 2.3, HPLC C18, 43° C. The method, then:
The specified log P values are determined by HPLC on a reverse phase column (C18) in accordance with EEC Directive 79/831 Annex V.A8. Temperature: 43° C. Eluents for the measurement in the acid range (pH 2.3): 0.1% aqueous phosphoric acid, acetonitrile; linearer gradient of 10% acetonitrile to 90% acetonitrile. Calibration is performed with unbranched alkyl-2-ones (with 3 to 16 carbon atoms) with known log P values (determination of the log P values based on retention times by linear interpolation between two sequential alkyl ketones).
The compound `CC(CCc1ccccc1NC(=O)c1cn(C)nc1C(F)F)C(F)(F)F` (stereo not drawn) [Example 2, 3-difluoromethyl-1-methyl-1H-pyrazole-4-carboxyic acid, [2-(4,4,4-trifluoro-3-methylbutyl)-phenyl]-amide] came in with a chromatographic logP of 2.93.

In turn, `CC(CCc1cc(Cl)ccc1NC(=O)c1ccccc1C(F)(F)F)C(F)(F)F` (stereo not drawn) [Example 1, N-[4-chloro-2-(4,4,4-trifluoro-3-methylbutyl)-phenyl]-2-trifluoromethylbenzamide] gave a chromatographic logP of 4.08.

The subject of the next data set is Sphaerotheca fuliginea. Briefly: Sphaerotheca test (cucumber)/protective. Format: in vivo. The conditions noted are these: protective, application rate 100 g/ha, evaluation seven days after inoculation. The method, then: Sphaerotheca Test (Cucumber)/Protective Solvent: • 24.5 parts by weight acetone • 24.5 parts by weight dimethyl acetamide Emulsifier: 1 part by weight alkyl aryl polyglycol ether To produce an appropriate active ingredient preparation, one part by weight of the active substance is mixed with the specified quantities of solvent and emulsifying agent, and the concentrate is diluted with water to the desired concentration. Young plants are sprayed with the active ingredient preparation at the specified application rate to test the effectiveness of protection. After the sprayed coating has dried, the plants are inoculated with an aqueous spore suspension of Sphaerotheca fuliginea. Then the plants are placed in the greenhouse at about 23° C. with relative humidity of about 70%. The evaluation is performed seven days after the inoculation. A degree of effectiveness rating of 0% corresponds to the control, with 100% indicating no infestation observed.
As to `CCC(Cl)CC(C)c1ccccc1NC(=O)c1c(C)nn(C)c1F` (stereo not drawn) [drawing 80], the “Degree of effectiveness in %” value turned out to be 95%.

Turning to `CCC(Cl)CC(C)c1ccccc1NC(=O)c1cn(C)nc1C(F)F` (stereo not drawn) [drawing 81], the “Degree of effectiveness in %” value is given as 100%. Same read-out and setting: in the case of `CC(CCc1ccccc1NC(=O)c1cn(C)nc1C(F)F)C(F)(F)F` (stereo not drawn) [drawing 83] it was 98%; in that of `Cc1nn(C)c(F)c1C(=O)Nc1ccccc1CCC(C)C(F)(F)F` (stereo not drawn) [drawing 82], 100%.

The subject of another data set is Venturia inaequalis. Briefly: Venturia test (apple)/protective. Format: in vivo. The conditions noted are these: protective, application rate 100 g/ha, evaluation ten days after inoculation. The method, then:
Venturia Test (Apple)/Protective Solvent: • 24.5 parts by weight acetone • 24.5 parts by weight dimethyl acetamide Emulsifier: 1 part by weight alkyl aryl polyglycol ether To produce an appropriate active ingredient preparation, one part by weight of the active substance is mixed with the specified quantities of solvent and emulsifying agent, and the concentrate is diluted with water to the desired concentration. Young plants are sprayed with the active ingredient preparation at the specified application rate to test the effectiveness of protection. After the sprayed coating has dried, the plants are inoculated with an aqueous conidia suspension of the apple scab pathogen Venturia inaequalis and are then kept in an incubator at 20° C. and 100% relatively humidity for one day. Then the plants are placed in the greenhouse at about 21° C. with relative humidity of about 90%. The evaluation is performed ten days after the inoculation. A degree of effectiveness rating of 0% corresponds to the control, with 100% indicating no infestation observed.
In the case of `CC(CCc1ccccc1NC(=O)c1cn(C)nc1C(F)F)C(F)(F)F` (stereo not drawn) [drawing 89], the “Degree of effectiveness in %” value stood at 97%. The same measure, in the same setting: the value for `Cc1nn(C)c(F)c1C(=O)Nc1ccccc1CCC(C)C(F)(F)F` (stereo not drawn) [drawing 88] was 94%. On the same count and under the same terms, in the case of `CCC(Cl)CC(C)c1ccccc1NC(=O)c1c(C)nn(C)c1F` (stereo not drawn) [drawing 85] it was 100%; in that of `CCC(Cl)CC(C)c1ccccc1NC(=O)c1cn(C)nc1C(F)F` (stereo not drawn) [drawing 86], 100%. On the same count and under the same terms, the value for `CC(CCc1cc(Cl)ccc1NC(=O)c1cn(C)nc1C(F)F)C(F)(F)F` (stereo not drawn) was 93%; that for `CC(CCc1ccccc1NC(=O)c1ccccc1I)C(F)(F)F` (stereo not drawn) [drawing 87] was 94%.

The test system of another data set is Botrytis cinerea. As to the kind of experiment: Botrytis test (bean)/protective. The following applies: protective, application rate 500 g/ha, evaluation two days after inoculation. Format: in vivo. The method, then: Botrytis Test (Bean)/Protective Solvent: • 24.5 parts by weight acetone • 24.5 parts by weight dimethyl acetamide Emulsifier: 1 part by weight alkyl aryl polyglycol ether To produce an appropriate active ingredient preparation, one part by weight of the active substance is mixed with the specified quantities of solvent and emulsifying agent, and the concentrate is diluted with water to the desired concentration. Young plants are sprayed with the active ingredient preparation at the specified application rate to test the effectiveness of protection. After the sprayed coating has dried, two small pieces of agar with cultured Botrytis cinerea are placed on each leaf. The inoculated plants are placed in a darkened chamber at about 20° C. and 100% relatively humidity. Two days after the inoculation, the size of the infestation spots on the leaves is evaluated. A degree of effectiveness rating of 0% corresponds to the control, with 100% indicating no infestation observed.
Regarding `CCC(Cl)CC(C)c1ccccc1NC(=O)c1c(C)nn(C)c1F` (stereo not drawn) [drawing 90], the “Degree of effectiveness in %” value was found to be 82%. Still for that read-out and setting: the value for `CC(CCc1ccccc1NC(=O)c1cn(C)nc1C(F)F)C(F)(F)F` (stereo not drawn) [drawing 92] was 99%; that for `CCC(Cl)CC(C)c1ccccc1NC(=O)c1cn(C)nc1C(F)F` (stereo not drawn) [drawing 91] was 100%.

The subject of a further data set is Puccinia recondita. As to the kind of experiment: Puccinia test (wheat)/protective. Format: in vivo. The conditions noted are these: protective, application rate 500 g/ha, evaluation ten days after inoculation. The method, then:
Puccinia Test (Wheat)/Protective Solvent: 50 parts by weight N,N-dimethyl acetamide Emulsifier: 1 part by weight alkyl aryl polyglycol ether To produce an appropriate active ingredient preparation, one part by weight of the active substance is mixed with the specified quantities of solvent and emulsifying agent, and the concentrate is diluted with water to the desired concentration. Young plants are sprayed with the active ingredient preparation at the specified application rate to test the effectiveness of protection. After the sprayed coating has dried, the plants are sprayed with a conidia suspension of Puccinia recondita. The plants are kept in an incubator at 20° C. and 100% relatively humidity for 48 hours. Then the plants are placed in a greenhouse at a temperature of about 20° C. and a relatively humidity of 80%, in order to promote the development of rust spots. The evaluation is performed ten days after the inoculation. A degree of effectiveness rating of 0% corresponds to the control, with 100% indicating no infestation observed.
Regarding `CC(CCc1ccccc1NC(=O)c1cn(C)nc1C(F)F)C(F)(F)F` (stereo not drawn) [drawing 95], the “Degree of effectiveness in %” value was 100%. Regarding `CCC(Cl)CC(C)c1ccccc1NC(=O)c1cn(C)nc1C(F)F` (stereo not drawn) [drawing 93], the “Degree of effectiveness in %” value is 100%.

With `CC(CCc1ccccc1NC(=O)c1ccccc1I)C(F)(F)F` (stereo not drawn) [drawing 94], the “Degree of effectiveness in %” value came to 100%.

For a further data set, the system named is Alternaria solani. As to the kind of experiment: Alternaria test (tomato)/protective. Format: in vivo. The following applies: protective, application rate 750 g/ha, evaluation seven days after inoculation. The method, then: Alternaria Test (Tomato)/Protective Solvent: 49 parts by weight N,N-dimethyl formamide Emulsifier: 1 part by weight alkyl aryl polyglycol ether To produce an appropriate active ingredient preparation, one part by weight of the active substance is mixed with the specified quantities of solvent and emulsifying agent, and the concentrate is diluted with water to the desired concentration. Young tomato plants are sprayed with the active ingredient preparation at the specified application rate to test the effectiveness of protection. One day after treatment, the plants are inoculated with a spore suspension of Alternaria solani and are kept for 24 hours at 100% relatively humidity and 20° C. Subsequently, the plants are kept at 96% relatively humidity and a temperature of 20° C. The evaluation is performed seven days after the inoculation. A degree of effectiveness rating of 0% corresponds to the control, with 100% indicating no infestation observed.
In the case of `CCC(Cl)CC(C)c1ccccc1NC(=O)c1cn(C)nc1C(F)F` (stereo not drawn) [drawing 98], the “Degree of effectiveness in %” value is recorded as 95%. The same measure, in the same setting: the value for `Cc1nn(C)c(F)c1C(=O)Nc1ccc(Cl)cc1CCC(C)C(F)(F)F` (stereo not drawn) was 90%; that for `CCC(Cl)CC(C)c1ccccc1NC(=O)c1c(C)nn(C)c1F` (stereo not drawn) [drawing 97] was 100%.
